Consider 20 molecules from patent US9695149B2, “1,2,6-substituted benzimidazoles as flap modulators” (JANSSEN PHARMACEUTICA NV, priority 2013, dated 2017).

Molecules are shown by their SMILES. Counter-ions that a name gives are not always drawn. Some results are limits rather than exact numbers.

In assay [1] the target is human FLAP (Homo sapiens (Human), UniProt P20292). Briefly: FLAP binding assay (HTRF format). As to conditions: human FLAP-containing Sf-9 membranes, wild type; average of runs. The procedure:
(§1) The ability of the compounds of the present invention to treat a FLAP-mediated disease and/or disorder, or associated symptoms or complications thereof, was determined using the following procedures. Binding assay data represent the average value obtained from two different assay plates, with samples run in duplicate on each plate. Human whole blood assay data represent a single replicate on an assay plate using whole blood from at least one healthy donor.
The assay below is used to test the modulatory activity of compounds against FLAP. Human and mouse FLAP-encoding DNA was amplified by polymerase chain reaction and cloned into pFastBac1 (Invitrogen) with a NH2-terminal 6-His tag for expression in Spodoptera frugiperda (Sf-9) cells. FLAP-containing membranes were prepared as was a FITC-labeled FLAP modulator (3-(3-(tert-butylthio)-1-(4-chlorobenzyl)-5-(quinolin-2-ylmethoxy)-1H-indol-2-yl)-2,2-dimethylpropanoic acid). The FLAP binding assay is performed in HTRF format (homogeneous time resolved fluorescence). […] The reaction is allowed to proceed for two hours after which the plate is read on an Envision plate reader in HTRF mode. Data are expressed as a HTRF ratio.
For human FLAP binding assays, data are analyzed with 3DX Explorer software. […] For analysis, data from multiple runs are averaged and each compound may be tested in 2 to 20 runs. Each run comprises two plates and each plate includes duplicates. Data from each plate is averaged and data are imported into 3DX. The data from multiple runs are aggregated as the average of duplicates of the calculated ratios in order to calculate Ki and IC50 values. Numbers in parentheses are the number of runs for the assay.

Assay [2] relates to leukotriene pathway in human whole blood. Briefly: Human whole blood assay (LTB4, A23187-stimulated). It counts as cell-based. As to conditions: human whole blood diluted 1:1 in RPMI, calcium ionophore A23187 7 μg/mL, 30 min. The procedure:
as §1
An in vitro cellular assay was performed using human whole blood collected in heparin-containing tubes, which was used to test the ability of compounds to modulate the leukotriene pathway in human whole blood. The blood was diluted 1:1 in RPMI medium, pre-incubated for 15 min at 37° Celsius with test compounds at various concentrations, and then stimulated with calcium ionophore, A23187 (7 μg/mL), for 30 min at 37° Celsius. The samples were then centrifuged and plasma was removed. The plasma was diluted in assay buffer and LTB4 levels were measured using a commercial kit (Enzo Life Sciences). The concentration of each compound that was required for half-maximal inhibition (modulation) of […] (IC50) was calculated by a 4-parameter equation using the program GraphPad Prism (GraphPad software). For analysis, data are imported into 3DX and aggregated as the average of duplicates of the calculated ratios in order to calculate Ki and IC50 values. Numbers in parentheses are the number of runs for the assay.

human FLAP, sequence (P20292 whole entry): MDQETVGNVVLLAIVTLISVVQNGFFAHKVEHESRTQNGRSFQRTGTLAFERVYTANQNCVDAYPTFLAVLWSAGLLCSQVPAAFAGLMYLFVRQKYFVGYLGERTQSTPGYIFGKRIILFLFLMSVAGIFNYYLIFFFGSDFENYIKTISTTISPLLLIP

Usually Ki stands for the equilibrium dissociation constant of an inhibitor or competing ligand from its target. Higher therefore signals a looser hold on the target. In general, IC50 refers to the point on the concentration scale where inhibition reaches its midpoint. `Cc1ccc(COc2cc(F)c3nc(CC4(C(=O)O)CCCC4)n(Cc4ccccc4Br)c3c2)nc1` [Example 231, 1-({1-(2-Bromobenzyl)-4-fluoro-6-[(5-methylpyridin-2-yl)methoxy]-1H-benzimidazol-2-yl}methyl)cyclopentanecarboxylic acid as the trifluoroacetic salt] returned a Ki in assay [1] of 180 nM. For the same molecule, the IC50 in assay [2] (Homo sapiens, 0.5 h) is > 30000 nM.
On to `Cc1ccc(COc2cc(F)c3nc(CC4(C(=O)O)CCCC4)n(Cc4cccc(Br)c4)c3c2)nc1` [Example 230, 1-({1-(3-Bromobenzyl)-4-fluoro-6-[(5-methylpyridin-2-yl)methoxy]-1H-benzimidazol-2-yl}methyl)cyclopentanecarboxylic acid as the trifluoroacetic salt], for which the Ki in assay [1] was 73 nM. Also, in assay [2] (Homo sapiens, 0.5 h), the IC50 is > 30000 nM.
The like results for `Cc1ccc(COc2ccc3nc(C4CCCC[C@H]4C(=O)O)n(Cc4cccc(C)c4)c3c2)nc1` (mixture of isomers) [Example 200, racemic trans-2-{1-(3-Methylbenzyl)-6-[(5-methylpyridin-2-yl)methoxy]-1H-benzimidazol-2-yl}cyclohexanecarboxylic acid] were, in that order, 30 nM and 3140 nM.
In assay [1], `Cn1ccc(COc2ccc3nc(C4CCCC[C@H]4C(=O)O)n(Cc4cc(Br)ccc4F)c3c2)n1` (mixture of isomers) [Example 233, racemic cis-2-{1-(5-Bromo-2-fluorobenzyl)-6-[(1-methyl-H-pyrazol-3-yl)methoxy]-1H-benzimidazol-2-yl}cyclohexanecarboxylic acid] returned a Ki of 35 nM. Besides, the IC50 in assay [2] (Homo sapiens, 0.5 h) stood at 2260 nM.
On the same counts, the results for `CCC(CC)(Cc1nc2ccc(OCc3ccc(C)cn3)cc2n1Cc1ccc(N2CCC(F)(F)C2)cc1)C(=O)O` [Example 226, 2-({1-[4-(3,3-Difluoropyrrolidin-1-yl)benzyl]-6-[(5-methylpyridin-2-yl)methoxy]-1H-benzimidazol-2-yl}methyl)-2-ethylbutanoic acid] are 17 nM and ~3200 nM.
In assay [1], `Cc1ccc(COc2ccc3nc(C4CCCC[C@H]4C(=O)O)n(Cc4cc(N5CCC(F)(F)CC5)ccc4F)c3c2)nc1` (mixture of isomers) [Example 208, racemic cis-2-{1-[5-(4,4-Difluoropiperidin-1-yl)-2-fluorobenzyl]-6-[(5-methylpyridin-2-yl)methoxy]-1H-benzimidazol-2-yl}cyclohexanecarboxylic acid] gave a Ki of 9.5 nM. The IC50 in assay [2] (Homo sapiens, 0.5 h) was found to be 370 nM.
On the same counts, the results for `Cc1ccc(COc2ccc3nc(C4CCCC[C@H]4C(=O)O)n(Cc4cccc(Br)c4)c3c2)nc1` (mixture of isomers) [Example 228, racemic cis-2-{1-(3-Bromobenzyl)-6-[(5-methylpyridin-2-yl)methoxy]-1H-benzimidazol-2-yl}cyclohexanecarboxylic acid] are 6.8 nM and 4010 nM.
With `Cc1ccc(COc2ccc3nc(C4CCCC[C@H]4C(=O)O)n(Cc4cccc(N5CC(F)(F)C5)c4)c3c2)nc1` (mixture of isomers) [Example 219, racemic cis-2-{1-[3-(3,3-Difluoroazetidin-1-yl)benzyl]-6-[(5-methylpyridin-2-yl)methoxy]-1H-benzimidazol-2-yl}cyclohexanecarboxylic acid], in assay [1], the affinity corresponds to a Ki of 9.1 nM. Also, the IC50 in assay [2] (Homo sapiens, 0.5 h) turned out to be 1600 nM.
The like results for `CCC(CC)(Cc1nc2ccc(OCc3ccn(C)n3)cc2n1Cc1cccc(N2CCC(F)(F)C2)c1)C(=O)O` [Example 211, 2-({1-[3-(3,3-Difluoropyrrolidin-1-yl)benzyl]-6-[(1-methyl-1H-pyrazol-3-yl)methoxy]-1H-benzimidazol-2-yl}methyl)-2-ethylbutanoic acid] were, in that order, 35 nM and 840 nM.
The like results for `Cc1ccc(COc2ccc3nc(C4CCCC[C@H]4C(=O)O)n(Cc4ccccc4C)c3c2)nc1` (mixture of isomers) [Example 206, racemic trans-2-{1-(2-Methylbenzyl)-6-[(5-methylpyridin-2-yl)methoxy]-1H-benzimidazol-2-yl}cyclohexanecarboxylic acid] were, in that order, 45 nM and 1270 nM.
The like results for `Cn1ccc(COc2ccc3nc(C4CCCC[C@H]4C(=O)O)n(Cc4cccc(Br)c4)c3c2)n1` (single isomer, unassigned) [Example 197, (1S*,2R*)-2-{1-(3-Bromobenzyl)-6-[(1-methyl-1H-pyrazol-3-yl)methoxy]-1H-benzimidazol-2-yl}cyclohexanecarboxylic acid] were, in that order, 6.6 nM and 1810 nM.
Turning to `CCC(CC)(Cc1nc2ccc(OCc3ncc(C)cc3F)cc2n1Cc1ccc(N2CCC(C(F)(F)F)CC2)cc1)C(=O)O` [Example 194, 2-Ethyl-2-[(6-[(3-fluoro-5-methylpyridin-2-yl)methoxy]-1-{4-[4-(trifluoromethyl)piperidin-1-yl]benzyl}-1H-benzimidazol-2-yl)methyl]butanoic acid], the Ki in assay [1] was 5.7 nM. The IC50 in assay [2] (Homo sapiens, 0.5 h) was 580 nM.
The like results for `Cn1ccc(COc2ccc3nc(C4CCCC[C@H]4C(=O)O)n(Cc4cccc(N5CCC(F)(F)CC5)c4)c3c2)n1` (mixture of isomers) [Example 203, racemic cis-2-{1-[3-(4,4-Difluoropiperidin-1-yl)benzyl]-6-[(1-methyl-1H-pyrazol-3-yl)methoxy]-1H-benzimidazol-2-yl}cyclohexanecarboxylic acid] were, in that order, 18 nM and 730 nM.
The molecule `Cc1ccc(COc2ccc3nc(C4CCCC[C@H]4C(=O)O)n(Cc4cccc(N5CCCC(F)(F)C5)c4)c3c2)nc1` (mixture of isomers) [Example 222, racemic cis-2-{1-[3-(3,3-Difluoropiperidin-1-yl)benzyl]-6-[(5-methylpyridin-2-yl)methoxy]-1H-benzimidazol-2-yl}cyclohexanecarboxylic acid] came in with an inhibition constant (Ki) in assay [1] of 3.8 nM. Moreover, in assay [2] (Homo sapiens, 0.5 h), the IC50 came out at 310 nM.
`Cc1ccc(COc2ccc3nc(C4CCCC[C@H]4C(=O)O)n(Cc4ccccc4C)c3c2)nc1` (mixture of isomers) [Example 207, racemic cis-2-{1-(2-Methylbenzyl)-6-[(5-methylpyridin-2-yl)methoxy]-1H-benzimidazol-2-yl}cyclohexanecarboxylic acid] showed a Ki in assay [1] of 31 nM. The IC50 in assay [2] was 1810 nM.
In the case of `Cn1ccc(COc2ccc3nc(C4CCCC[C@H]4C(=O)O)n(Cc4cccc(N5CCCCC5)c4)c3c2)n1` (mixture of isomers) [Example 204, racemic cis-2-{6-[(1-Methyl-1H-pyrazol-3-yl)methoxy]-1-(3-piperidin-1-ylbenzyl)-1H-benzimidazol-2-yl}cyclohexanecarboxylic acid], affinity in assay [1] was put at a Ki of 31 nM. Moreover, the IC50 in assay [2] (Homo sapiens, 0.5 h) came to 240 nM.
On the same counts, the results for `Cc1ccc(COc2ccc3nc(C4CCCC[C@H]4C(=O)O)n(Cc4cccc(N5CCC(F)(F)CC5)c4)c3c2)nc1` (mixture of isomers) [Example 221, racemic cis-2-{1-[3-(4,4-Difluoropiperidin-1-yl)benzyl]-6-[(5-methylpyridin-2-yl)methoxy]-1H-benzimidazol-2-yl}cyclohexanecarboxylic acid] are 6.6 nM and 500 nM.
On the same counts, the results for `COc1ncc(-c2cccc(Cn3c(C4CCCC[C@H]4C(=O)O)nc4ccc(OCc5ccc(C)cn5)cc43)c2)cn1` (mixture of isomers) [Example 195, racemic cis-2-{1-[3-(2-Methoxypyrimidin-5-yl)benzyl]-6-[(5-methylpyridin-2-yl)methoxy]-1H-benzimidazol-2-yl}cyclohexanecarboxylic acid] are 19 nM and 1430 nM.
Take `Cc1cnc(COc2ccc3nc(CC(C)(C)C(=O)O)n(Cc4cc(Br)ccc4F)c3c2)c(F)c1` [Example 193, 3-{1-(5-Bromo-2-fluorobenzyl)-6-[(3-fluoro-5-methylpyridin-2-yl)methoxy]-1H-benzimidazol-2-yl}-2,2-dimethylpropanoic acid]: the Ki in assay [1] is 120 nM. In addition, the IC50 in assay [2] (Homo sapiens, 0.5 h) is 5550 nM.
`Cc1ccc(COc2ccc3nc(C4CCCC[C@H]4C(=O)O)n(Cc4cccc(C)c4)c3c2)nc1` (mixture of isomers) [Example 201, racemic cis-2-{1-(3-Methylbenzyl)-6-[(5-methylpyridin-2-yl)methoxy]-1H-benzimidazol-2-yl}cyclohexanecarboxylic acid] displayed a Ki in assay [1] of 12 nM. The IC50 in assay [2] is 1680 nM.
